Assay results from PubChem BioAssay (NCI).
Several values for one entry are separate records, joined by “and”; a condition that tells them apart may be missing. Identical values can stand only once.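 Following 48 hours of exposure in 96-well plates, responses at five concentrations were used to interpolate endpoints linearly. GI50 marks 50% less growth. Definition used: TGI = concentration required for complete inhibition of growth.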

Columns and labels:
Test in all cases: growth of human tumour cells (NCI), 48 h
M14 melanoma = system: M14 melanoma
UO-31 renal = system: UO-31 renal
SW-620 colon = system: SW-620 colon
A549 NSCLC = system: A549 NSCLC
DU-145 prostate = system: DU-145 prostate
SF-295 CNS = system: SF-295 CNS
UACC-257 melanoma = system: UACC-257 melanoma
TK-10 renal = system: TK-10 renal
IGROV1 ovarian = system: IGROV1 ovarian
SK-OV-3 ovarian = system: SK-OV-3 ovarian

Row | SMILES | GI50 (M14 melanoma) | TGI (M14 melanoma) | GI50 (UO-31 renal) | TGI (UO-31 renal) | GI50 (SW-620 colon) | TGI (SW-620 colon) | GI50 (A549 NSCLC) | TGI (A549 NSCLC) | GI50 (DU-145 prostate) | TGI (DU-145 prostate) | GI50 (SF-295 CNS) | TGI (SF-295 CNS) | GI50 (UACC-257 melanoma) | TGI (UACC-257 melanoma) | GI50 (TK-10 renal) | TGI (TK-10 renal) | GI50 (IGROV1 ovarian) | TGI (IGROV1 ovarian) | GI50 (SK-OV-3 ovarian) | TGI (SK-OV-3 ovarian)
1 | C/C(CCC(=O)O)=N/Nc1ccc([N+](=O)[O-])cc1 | 1.53 µM | > 100 µM | 3.27 µM | > 100 µM | 2.6 µM | > 100 µM | 4.41 µM | > 100 µM | > 100 µM | > 100 µM | 2.36 µM | > 100 µM | 70.6 µM | > 100 µM | > 100 µM | > 100 µM | > 100 µM | > 100 µM | > 100 µM | > 100 µM
2 | COC(=O)Oc1nn(C(=O)OC)c(=O)c2ccccc12 | – | > 100 µM | – | > 100 µM | – | > 100 µM | – | > 100 µM | – | > 100 µM | – | > 100 µM | – | > 100 µM | – | > 100 µM | – | > 100 µM | – | > 100 µM
3 | CC1(C)CC(=O)C=C(/C=C/Sc2c(Cl)c(Cl)nc(Cl)c2Cl)C1 | 11.7 µM | 24.2 µM | 10 µM | 33.4 µM | 11.8 µM | 32.7 µM | 15.4 µM | 29.8 µM | 10 µM | 21.7 µM | 17.7 µM | 35.6 µM | 15.6 µM | 31.8 µM | 19.6 µM | 35.5 µM | 4.75 µM | 84.9 µM | 19.9 µM | 34.8 µM
4 | C[C@H](c1ccc(F)cc1CCCC(=O)O)N(c1cc(F)ccc1F)S(=O)(=O)c1ccc(Cl)cc1 | 22.6 µM | > 80.2 µM | 25.4 µM | > 100 µM | 34.6 µM | > 100 µM | 28.1 µM | > 100 µM | 34 µM | > 100 µM | 23.1 µM | > 75.9 µM | 26.9 µM | > 100 µM | 55.3 µM | > 100 µM | 31.7 µM | > 92.4 µM | 42.3 µM | > 100 µM
5 | CN1CC=C(c2cc(NC(=O)Nc3ccc(Oc4ccnc(NC(=O)C5CC5)c4)c(F)c3)cc(C(F)(F)F)c2)CC1 | 0.524 µM | 1.48 µM | 1.58 µM | 3.57 µM | 0.196 µM | 0.556 µM | 0.247 µM | 1.8 µM | 0.212 µM | 1.62 µM | 0.933 µM | 2.94 µM | 1.34 µM | 3.24 µM | 1.62 µM | 3.91 µM | 0.244 µM | 1.34 µM | 2.74 µM | 7.25 µM
6 | O=C1Nc2ccccc2/C1=C\c1c(-c2ccccc2)nc2sccn12 | 1.98 µM | 7.61 µM | 2.55 µM | 13.3 µM | 2.16 µM | 27.1 µM | 3.5 µM | > 100 µM | 7.31 µM | 31.1 µM | 0.797 µM | 3.24 µM | 14.9 µM | 41 µM | 4.61 µM | 17.2 µM | 1.98 µM | > 54.2 µM | 2.91 µM | 12.7 µM
7 | Cc1cc(Cl)nc2ccc(Cc3ccc4nc(Cl)cc(C)c4c3)cc12 | – | > 100 µM | – | > 100 µM | – | > 100 µM | – | > 100 µM | – | > 100 µM | – | > 100 µM | – | > 100 µM | – | 59.7 µM | – | > 100 µM | – | 47.1 µM
8 | CCc1ccccc1NC(=O)C(C#N)C1=C(Cl)C(=O)c2ccccc2C1=O (stereo not given) | – | 21.8 µM | – | 26.6 µM | – | 44 µM | – | 54.7 µM | – | 32.2 µM | – | 52.6 µM | – | 31.8 µM | – | 33.7 µM | – | 32.8 µM | – | > 100 µM
9 | Cc1ccc(F)c(NC(=O)Nc2ccc(-c3cccc4[nH]nc(N)c34)cc2)c1 | 3.63 µM and 3.58 µM | 15.5 µM and > 10 µM | 2.79 µM and 2.91 µM | 11.3 µM and > 10 µM | 2.4 µM and 2.58 µM | 6.73 µM and 9.58 µM | 2.31 µM and 2.12 µM | 5.97 µM and 4.95 µM | 3.68 µM and 3.37 µM | 13.1 µM and > 10 µM | 2.55 µM and 3.48 µM | 12.3 µM and > 10 µM | 4.39 µM and 5.34 µM | 16.7 µM and > 10 µM | 3.6 µM and 2.84 µM | 14.6 µM and > 10 µM | 4 µM and 3.13 µM | 15.8 µM and > 10 µM | 10.5 µM | 23.5 µM and > 10 µM
10 | Cc1ccc([Se](=C(C(=O)c2ccccc2)C(=O)c2ccccc2)c2ccc(C)cc2)cc1 | – | > 100 µM | – | > 100 µM | – | > 100 µM | – | > 100 µM | – | > 100 µM | – | 66.5 µM | – | 53.1 µM | – | 94.6 µM | – | 78.5 µM | – | > 100 µM
11 | Cc1ccccc1C1=C(c2cn(C)c3ccccc23)C(=O)NC1=O | > 25 µM | > 25 µM | > 25 µM | > 25 µM | 12.1 µM | > 25 µM | 12.2 µM | > 25 µM | 23.7 µM | > 25 µM | 14.7 µM | > 25 µM | > 25 µM | > 25 µM | > 25 µM | > 25 µM | > 25 µM | > 25 µM | > 25 µM | > 25 µM
12 | CS(=O)(=O)CCNCc1ccc(-c2ccc3ncnc(Nc4ccc(OCc5cccc(F)c5)c(Cl)c4)c3c2)o1 | 8.6 µM and 2.56 µM and 4.22 µM | > 10 µM and > 20.2 µM and 12.2 µM | 2.39 µM and 0.807 µM and 1.08 µM | > 10 µM and > 33 µM and 26.2 µM | > 10 µM and 1.94 µM and 3.82 µM | > 10 µM and 3.6 µM and 9.46 µM | 7.66 µM and 5.68 µM and 5.76 µM | > 10 µM and > 100 µM and 23.5 µM | 7.11 µM and 2.61 µM and 6.75 µM | > 10 µM and > 100 µM and 34.8 µM | 6.84 µM and 5.32 µM and 3.54 µM | > 10 µM and > 100 µM and 24.8 µM | > 10 µM and 1.97 µM and 3.1 µM | > 10 µM and 3.75 µM and 6.52 µM | 0.17 µM and 0.176 µM and 0.0385 µM | > 10 µM and > 100 µM and 11.2 µM | 2.02 µM and 0.338 µM and 0.387 µM | > 10 µM and 26.1 µM | 0.0681 µM and 0.0409 µM and 0.0441 µM | > 10 µM and > 100 µM and 31.7 µM
13 | CS(=O)(=O)N1CCC(n2c(=O)c(Oc3ccc(F)cc3F)cc3cnc(NC4CCOCC4)nc32)CC1 | > 25 µM | > 25 µM | 16.9 µM | > 25 µM | > 25 µM | > 25 µM | > 25 µM | > 25 µM | > 25 µM | > 25 µM | > 25 µM | > 25 µM | > 25 µM | > 25 µM | 19.9 µM | > 25 µM | > 25 µM | > 25 µM | > 17.5 µM | > 25 µM
14 | O=C([O][Hg][c]1ccccc1)c1ccccc1 | 1.36 µM | 2.94 µM | 1.47 µM | 2.89 µM | 0.943 µM | 2.63 µM | 12.7 µM | 40 µM | 1.95 µM | 4.13 µM | 12.2 µM | 25.5 µM | 1.38 µM | 3.03 µM | 1.6 µM | 2.95 µM | 1.48 µM | 3.58 µM | 4.03 µM | 11.9 µM
